# Read-outs that look alike come from different tables or passages of the source. Non-standard residues stand in square brackets, D forms with d. Residues, ends and D or L forms follow the SMILES beside them. *: point of attachment. X3 = COC1=CC(=O)N(C(=O)[C@@H](O*)C(C)C)[C@H]1Cc1ccccc1; NMe2Val = CC(C)[C@@H](C(=O)*)N(C)C; NMeV = CN[C@H](C(=O)O)C(C)C
# Columns and labels:
# [1] = tested on: P388 lymphocytic leukemia cell line; experiment: P388 in vitro cell line growth inhibition; type: cell-based, murine
# Description: Because of the dolastatin's potency, the sea hare seems to require only vanishingly small quantities (about 1 mg each from 100 kg), making isolation and structural elucidation of these peptides exceptionally challenging. Later another substance was isolated and determined to be a unique linear pentapeptide and was denominated "dolastatin 10". […] The PS System is an excellent predictor of activity against various types of human neoplasms (See: Vendetti et al, Lloydia, 30, 332 et seq (1967) and references cited therein.)
# [2] = tested on: P388 lymphocytic leukemia cell line; details: PS leukemia; cited from earlier work
SMILES,ED50 [1] [ng/mL],ED50 [2] [µg/mL]
COC1=CC(=O)N(C(=O)[C@@H](OC(=O)[C@@H]2CCCN2C(=O)[C@@H]2CCCN2C(=O)[C@H](C(C)C)N(C)C(=O)[C@@H](NC(=O)[C@H](C(C)C)N(C)C)C(C)C)C(C)C)[C@H]1Cc1ccccc1 [Dolastatin 15] (NMe2Val-V[NMeV]PP-X3),2.4,
CC[C@H](C)[C@@H]([C@@H](CC(=O)N1CCC[C@H]1[C@H](OC)[C@@H](C)C(=O)N[C@@H](Cc1ccccc1)c1nccs1)OC)N(C)C(=O)[C@@H](NC(=O)[C@H](C(C)C)N(C)C)C(C)C [dolastatin 10],,46
